Data published in US9850258B2, “Substituted tetrahydrocarbazole and carbazole carboxamide compounds” (BRISTOL-MYERS SQUIBB COMPANY, priority 2013, dated 2017).
Like-named read-outs stand apart in the source and are kept apart here.

Legend:
Jak2 tyrosine kinase = Jak2 tyrosine kinase (Homo sapiens (Human), UniProt O60674); experiment: Jak2 Tyrosine Kinase Assay; type: biochemical; settings: for IC50: Jak2 tyrosine kinase, ATP 30 μM
[1] = tested on: CD69 expression on B cells in human whole blood; experiment: Whole Blood Assay of BCR-Stimulated CD69 Expression on B Cells; type: cell-based
human recombinant Btk = human recombinant Btk (Homo sapiens (Human), UniProt Q06187); experiment: Human Recombinant Btk Enzyme Assay; type: biochemical
Chain of human recombinant Btk (Q06187 whole entry): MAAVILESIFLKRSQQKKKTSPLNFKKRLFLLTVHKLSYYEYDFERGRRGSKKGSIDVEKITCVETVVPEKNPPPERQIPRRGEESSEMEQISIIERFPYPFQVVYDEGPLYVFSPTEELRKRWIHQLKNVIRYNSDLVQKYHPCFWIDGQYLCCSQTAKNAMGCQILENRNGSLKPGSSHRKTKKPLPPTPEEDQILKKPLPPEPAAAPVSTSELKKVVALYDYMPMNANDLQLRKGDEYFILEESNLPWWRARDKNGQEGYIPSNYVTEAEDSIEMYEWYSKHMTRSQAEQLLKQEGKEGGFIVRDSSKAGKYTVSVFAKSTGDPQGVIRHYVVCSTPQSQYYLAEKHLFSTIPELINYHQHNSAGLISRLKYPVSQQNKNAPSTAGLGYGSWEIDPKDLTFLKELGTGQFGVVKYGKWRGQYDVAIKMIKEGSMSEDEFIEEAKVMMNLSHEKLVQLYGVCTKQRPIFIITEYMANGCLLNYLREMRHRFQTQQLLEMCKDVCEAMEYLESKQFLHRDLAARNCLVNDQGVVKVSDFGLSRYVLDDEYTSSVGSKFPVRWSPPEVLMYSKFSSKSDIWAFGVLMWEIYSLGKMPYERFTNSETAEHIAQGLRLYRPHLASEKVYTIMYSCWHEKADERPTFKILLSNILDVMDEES

Chain of Jak2 tyrosine kinase (O60674 whole entry): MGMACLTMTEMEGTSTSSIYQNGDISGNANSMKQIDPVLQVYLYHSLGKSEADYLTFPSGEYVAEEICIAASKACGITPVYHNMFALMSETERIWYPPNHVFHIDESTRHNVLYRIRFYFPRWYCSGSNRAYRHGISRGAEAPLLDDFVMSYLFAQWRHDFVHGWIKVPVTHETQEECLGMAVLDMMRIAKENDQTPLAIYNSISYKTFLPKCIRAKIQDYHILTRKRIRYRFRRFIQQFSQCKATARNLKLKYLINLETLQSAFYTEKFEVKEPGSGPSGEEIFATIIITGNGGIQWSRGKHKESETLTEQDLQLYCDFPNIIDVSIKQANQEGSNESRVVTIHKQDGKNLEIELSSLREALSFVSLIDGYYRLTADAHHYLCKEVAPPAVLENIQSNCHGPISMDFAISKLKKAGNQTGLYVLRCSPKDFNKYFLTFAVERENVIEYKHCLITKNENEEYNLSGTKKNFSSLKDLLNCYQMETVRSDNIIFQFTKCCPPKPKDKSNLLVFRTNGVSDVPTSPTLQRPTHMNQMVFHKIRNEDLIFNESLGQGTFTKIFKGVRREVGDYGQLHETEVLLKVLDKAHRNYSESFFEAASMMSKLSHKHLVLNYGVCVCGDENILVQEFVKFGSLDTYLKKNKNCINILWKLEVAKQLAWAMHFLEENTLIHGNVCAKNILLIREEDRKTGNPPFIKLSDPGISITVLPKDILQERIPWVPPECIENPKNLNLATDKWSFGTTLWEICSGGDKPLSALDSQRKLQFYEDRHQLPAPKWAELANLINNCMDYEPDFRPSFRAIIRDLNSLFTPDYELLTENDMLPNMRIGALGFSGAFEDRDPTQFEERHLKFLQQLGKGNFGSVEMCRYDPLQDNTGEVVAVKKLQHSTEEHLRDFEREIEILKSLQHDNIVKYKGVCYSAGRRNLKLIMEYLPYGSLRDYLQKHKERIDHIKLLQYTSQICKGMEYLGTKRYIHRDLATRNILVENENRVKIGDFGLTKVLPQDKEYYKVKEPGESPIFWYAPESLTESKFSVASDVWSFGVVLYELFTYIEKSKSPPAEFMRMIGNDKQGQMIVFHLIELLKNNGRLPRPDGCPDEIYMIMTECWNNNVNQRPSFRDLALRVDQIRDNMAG

SMILES	IC50 (Jak2 tyrosine kinase)	IC50 [1]	Ratio of Jak2/Btk IC50 values (Jak2 tyrosine kinase; selectivity of Btk over Jak2)	IC50 (human recombinant Btk)	IC50 ([1]; Homo sapiens, B-cell)	Ratio of Jak2/Btk IC50 values (Jak2 tyrosine kinase; kinase selectivity of Btk over Jak2, larger value = more selective for Btk)
Cc1c(-c2c(F)cc(C(N)=O)c3[nH]c4cc(C(C)(C)O)ccc4c23)cccc1-n1c(=O)c2cccc(F)c2n(C)c1=O (atropisomer, axis not shown) [Example 19, 3-Fluoro-4-(R)-(3-(S)-(8-fluoro-1-methyl-2,4-dioxo-1,2-dihydroquinazolin-3(4H)-yl)-2-methylphenyl)-7-(2-hydroxypropan-2-yl)-9H-carbazole-1-carboxamide]	2 µM	0.091 µM				
CC(C)(O)c1ccc2c(c1)[nH]c1c(C(N)=O)cc(Cl)c(-c3cccc(-n4c(=O)[nH]c5c(F)cccc5c4=O)c3Cl)c12 [Example 47, 3-Chloro-4-(R)-(2-chloro-3-(8-fluoro-2,4-dioxo-1,2-dihydroquinazolin-3(4H)-yl)phenyl)-7-(2-hydroxypropan-2-yl)-9H-carbazole-1-carboxamide]	1.8 µM		5100	0.00035 µM		
Cc1c(-c2c(Cl)cc(C(N)=O)c3[nH]c4cc(C(C)(C)O)ccc4c23)cccc1-n1c(=O)[nH]c2c(F)cc(F)cc2c1=O (racemic) [Example 10, 3-Chloro-4-(RS)-(3-(RS)-(6,8-difluoro-2,4-dioxo-1,2-dihydroquinazolin-3(4H)-yl)-2-methylphenyl)-7-(2-hydroxypropan-2-yl)-9H-carbazole-1-carboxamide]	> 2 µM		>2400	0.00083 µM		
Cn1c(=O)n(-c2cccc(-c3c(Cl)cc(C(N)=O)c4[nH]c5cc(C(C)(C)O)ccc5c34)c2Cl)c(=O)c2cccc(F)c21 [Example 44, 3-Chloro-4-(2-chloro-3-(8-fluoro-1-methyl-2,4-dioxo-1,2-dihydroquinazolin-3(4H)-yl)phenyl)-7-(2-hydroxypropan-2-yl)-9H-carbazole-1-carboxamide]				0.0047 µM		
Cc1c(-c2c(F)cc(C(N)=O)c3[nH]c4cc(C(C)(C)O)ccc4c23)cccc1-n1c(=O)c2cccc(F)c2n(C)c1=O [Example 17, 3-Fluoro-4-(3-(8-fluoro-1-methyl-2,4-dioxo-1,2-dihydroquinazolin-3(4H)-yl)-2-methylphenyl)-7-(2-hydroxypropan-2-yl)-9H-carbazole-1-carboxamide]	0.17 µM					
Cn1c(=O)n(-c2cccc(-c3c(Cl)cc(C(N)=O)c4[nH]c5cc(C(C)(C)O)ccc5c34)c2Cl)c(=O)c2ccccc21 [Example 42, 3-Chloro-4-(2-chloro-3-(1-methyl-2,4-dioxo-1,2-dihydroquinazolin-3(4H)-yl)phenyl)-7-(2-hydroxypropan-2-yl)-9H-carbazole-1-carboxamide]				0.002 µM		
Cc1c(-c2c(F)cc(C(N)=O)c3[nH]c4cc(C(C)(C)O)ccc4c23)cccc1-n1c(=O)[nH]c2c(F)cc(F)cc2c1=O (single isomer, unassigned) [Example 73]					0.021 µM	
Cc1cc(C(N)=O)c2[nH]c3cc(C(C)(C)O)ccc3c2c1-c1cccc(-n2c(=O)c3cccc(F)c3n(C)c2=O)c1C (atropisomer, axis not shown) [Example 29, 4-(R)-(3-(S)-(8-Fluoro-1-methyl-2,4-dioxo-1,2-dihydroquinazolin-3(4H)-yl)-2-methylphenyl)-7-(2-hydroxypropan-2-yl)-3-methyl-9H-carbazole-1-carboxamide]	0.79 µM			0.00066 µM		
Cc1c(-c2c(Cl)cc(C(N)=O)c3[nH]c4cc(C(C)(C)O)ccc4c23)cccc1-n1c(=O)c2cccc(C)c2n(C)c1=O [Example 4, 3-Chloro-4-(R)-(3-(1,8-dimethyl-2,4-dioxo-1,2-dihydroquinazolin-3(4H)-yl)-2-methylphenyl)-7-(2-hydroxypropan-2-yl)-9H-carbazole-1-carboxamide]	0.35 µM		270	0.0013 µM		
Cc1c(-c2c(Cl)cc(C(N)=O)c3[nH]c4cc(C(C)(C)O)ccc4c23)cccc1-n1c(=O)c2ccc(F)cc2n(C)c1=O [Example 9, 3-Chloro-4-(R)-(3-(7-fluoro-1-methyl-2,4-dioxo-1,2-dihydroquinazolin-3(4H)-yl)-2-methylphenyl)-7-(2-hydroxypropan-2-yl)-9H-carbazole-1-carboxamide]	> 2 µM		>3200	0.00062 µM		
Cc1nc(C(N)=O)c2[nH]c3cc(C(C)(C)O)ccc3c2c1-c1cccc(-n2cnc3ccccc3c2=O)c1C [Comparative Example 76, 7-(2-Hydroxypropan-2-yl)-3-methyl-4-(2-methyl-3-(4-oxoquinazolin-3(4H)-yl)phenyl)-9H-pyrido[3,4-b]indole-1-carboxamide, reference compound]						29
Cc1c(-c2c(Cl)cc(C(N)=O)c3[nH]c4cc(C(C)(C)O)ccc4c23)cccc1-n1c(=O)ccn(-c2ccc(F)cc2)c1=O [Example 24, 3-Chloro-4-(R)-(3-(3-(4-fluorophenyl)-2,6-dioxo-2,3-dihydropyrimidin-(6H)-yl)-2-methylphenyl)-7-(2-hydroxypropan-2-yl)-9H-carbazole-1-carboxamide]	1.8 µM		5500	0.00033 µM		
Cc1c(-c2c(Cl)cc(C(N)=O)c3[nH]c4cc(C(C)(C)O)ccc4c23)cccc1-n1c(=O)c2ccccc2n(C)c1=O [Example 3, 3-Chloro-7-(2-hydroxypropan-2-yl)-4-(R)-(2-methyl-3-(1-methyl-2,4-dioxo-1,2-dihydroquinazolin-3(4H)-yl)phenyl)-9H-carbazole-1-carboxamide]	2 µM		2000	0.001 µM		
COc1cccc2c(=O)n(-c3cccc(-c4c(Cl)cc(C(N)=O)c5[nH]c6cc(C(C)(C)O)ccc6c45)c3C)c(=O)n(C)c12 [Example 7, 3-Chloro-7-(2-hydroxypropan-2-yl)-4-(R)-(3-(8-methoxy-1-methyl-2,4-dioxo-1,2-dihydroquinazolin-3(4H)-yl)-2-methylphenyl)-9H-carbazole-1-carboxamide]	1.6 µM		2000	0.00081 µM		
Cc1c(-c2c(F)cc(C(N)=O)c3[nH]c4cc(C(C)(C)O)ccc4c23)cccc1-n1c(=O)[nH]c2c(F)cccc2c1=O [Example 20, 3-Fluoro-4-(3-(8-fluoro-2,4-dioxo-1,2-dihydroquinazolin-3(4H)-yl)-2-methylphenyl)-7-(2-hydroxypropan-2-yl)-9H-carbazole-1-carboxamide]	1.2 µM		2600	0.00046 µM		
Cc1c(-c2c(Cl)cc(C(N)=O)c3[nH]c4cc(C(C)(C)O)ccc4c23)cccc1-n1c(=O)ccn(-c2ccc(F)cc2)c1=O [Example 23, 3-Chloro-4-(3-(3-(4-fluorophenyl)-2,6-dioxo-2,3-dihydropyrimidin-1(6H)-yl)-2-methylphenyl)-7-(2-hydroxypropan-2-yl)-9H-carbazole-1-carboxamide]	0.44 µM		1000	0.00044 µM		
Cc1c(-c2c(Cl)cc(C(N)=O)c3[nH]c4cc(C(C)(C)O)ccc4c23)cccc1-n1c(=O)c2cc(F)ccc2n(C)c1=O [Example 8, 3-Chloro-4-(R)-(3-(6-fluoro-1-methyl-2,4-dioxo-1,2-dihydroquinazolin-3(4H)-yl)-2-methylphenyl)-7-(2-hydroxypropan-2-yl)-9H-carbazole-1-carboxamide]	> 2 µM		>3100	0.00065 µM		
Cn1c(=O)n(-c2cccc(-c3c(Cl)cc(C(N)=O)c4[nH]c5cc(C(C)(C)O)ccc5c34)c2Cl)c(=O)c2ccccc21 [Example 43, 3-Chloro-4-(R)-(2-chloro-3-(1-methyl-2,4-dioxo-1,2-dihydroquinazolin-3(4H)-yl)phenyl)-7-(2-hydroxypropan-2-yl)-9H-carbazole-1-carboxamide]				0.00047 µM		
Cc1c(-c2c(F)cc(C(N)=O)c3[nH]c4cc(C(C)(C)O)ccc4c23)cccc1-n1c(=O)c2cccc(F)c2n(C)c1=O (atropisomer, axis not shown) [Example 18, 3-Fluoro-4-(3-(S)-(8-fluoro-1-methyl-2,4-dioxo-1,2-dihydroquinazolin-3(4H)-yl)-2-methylphenyl)-7-(2-hydroxypropan-2-yl)-9H-carbazole-1-carboxamide]	2.2 µM					
